Data on seven compounds can be found in US20250215029A1 (Recludix Pharma, Inc., priority 2022, published 2025).

Read-outs that look alike come from different tables or passages of the source.

Assay [1] deals with T1, Recombinant STAT3 protein (STAT3 (G127-I722)) (Homo sapiens, UniProt P40763).
T1 construct: Recombinant STAT3 protein (STAT3 (G127-I722))
Put plainly: STAT3 Fluorescence Polarization (FP) Assay. Format: binding. The conditions noted are these: probe 5-FAM-GpYLPQTV-NH2 2 nM, 45-minute incubation. A digest of the protocol: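 Read-out is fluorescence polarization (mP) after 45 min at room temperature, with IC50 fitted by nonlinear regression against log compound concentration. Mixture: 25 nM STAT3 (G127-I722), 2 nM 5-FAM-GpYLPQTV-NH2 phosphopeptide, 10 mM HEPES pH 7.4 buffer, 1% DMSO.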
On the technique in general: Polarisation of emitted light reports the rotation of a fluorescent probe.

Assay [2] concerns the target T2, Recombinant STAT6 protein (STAT6 (W123-T658)) (Homo sapiens, UniProt P42226).
T2 construct: Recombinant STAT6 protein (STAT6 (W123-T658))
T2 sequence (P42226 123-658): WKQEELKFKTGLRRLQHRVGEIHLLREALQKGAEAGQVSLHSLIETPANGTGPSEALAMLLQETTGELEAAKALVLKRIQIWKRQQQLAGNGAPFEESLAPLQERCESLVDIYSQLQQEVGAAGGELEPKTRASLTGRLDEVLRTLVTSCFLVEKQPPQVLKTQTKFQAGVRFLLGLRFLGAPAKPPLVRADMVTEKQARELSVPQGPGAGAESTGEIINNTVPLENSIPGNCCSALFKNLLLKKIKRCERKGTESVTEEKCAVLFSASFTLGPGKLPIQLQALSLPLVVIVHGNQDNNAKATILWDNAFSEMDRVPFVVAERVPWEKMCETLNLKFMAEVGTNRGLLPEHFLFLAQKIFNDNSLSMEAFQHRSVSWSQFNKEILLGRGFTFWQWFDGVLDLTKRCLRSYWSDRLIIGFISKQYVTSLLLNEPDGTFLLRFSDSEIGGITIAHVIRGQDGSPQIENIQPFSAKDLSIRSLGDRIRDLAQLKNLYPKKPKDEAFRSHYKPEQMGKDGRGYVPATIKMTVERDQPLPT
Put plainly: STAT6 Fluorescence Polarization (FP) Assay. Format: binding. The settings on record: probe 5-FAM-Ap[…]-NH2 2 nM, 45-minute incubation. A digest of the protocol:
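Protein-probe mix (250 nM STAT6 W123-T658, 2 nM 5-FAM-pTyr peptide) in 10 mM HEPES pH 7.4, 50 mM NaCl, 1 mM EDTA, 0.05% Tween 20, 2 mM DTT; added to compound dilution series, 1% DMSO final; 45 min RT; FP read; IC50 via nonlinear regression.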

The mark [3] stands for this setting: STAT3 (G127-I722) 25 nM, read-out: STAT3 (FP assay IC50 class).
Where [4] appears, read: STAT6 (W123-T658) 250 nM, read-out: STAT6 (FP assay IC50 class).
[5] abbreviates: STAT3 25 nM, read-out: STAT3 (FP assay IC50).
Setting [6] is: STAT6 250 nM, read-out: STAT6 (FP assay IC50).

T1 sequence (P40763 127-722): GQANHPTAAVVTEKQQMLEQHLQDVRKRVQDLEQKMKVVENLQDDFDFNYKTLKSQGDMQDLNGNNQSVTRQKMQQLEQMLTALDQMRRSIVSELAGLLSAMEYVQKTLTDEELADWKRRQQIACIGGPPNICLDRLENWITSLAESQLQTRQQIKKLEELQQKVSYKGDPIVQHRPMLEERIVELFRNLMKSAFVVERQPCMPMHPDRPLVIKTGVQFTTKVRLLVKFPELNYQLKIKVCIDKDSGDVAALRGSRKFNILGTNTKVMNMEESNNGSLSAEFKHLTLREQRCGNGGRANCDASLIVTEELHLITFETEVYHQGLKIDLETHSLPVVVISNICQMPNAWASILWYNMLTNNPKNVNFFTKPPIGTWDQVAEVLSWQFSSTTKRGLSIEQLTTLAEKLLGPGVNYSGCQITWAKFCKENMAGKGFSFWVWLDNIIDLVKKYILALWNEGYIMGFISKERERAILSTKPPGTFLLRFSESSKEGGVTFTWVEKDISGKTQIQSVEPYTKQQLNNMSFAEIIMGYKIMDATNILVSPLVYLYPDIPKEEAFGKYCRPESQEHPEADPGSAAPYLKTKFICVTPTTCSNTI

By IC50 is commonly meant the concentration needed to halve the response being measured. In the case of `N#CC1CN(C(=O)[C@@H]2CC[C@@H]3CCC[C@H](NC(=O)c4cc5cc(C(F)(F)P(=O)(O)O)ccc5s4)C(=O)N32)C1` [Compound 780, ((2-(((3S,6S,9aS)-3-(3-cyanoazetidine-1-carbonyl)-5-oxooctahydro-1H-pyrrolo[1,2-a]azepin-6-yl)carbamoyl)benzo [b]thiophen-5-yl)difluoromethyl) phosphonic acid], the IC50 in assay [1] (setting [3]) is 100 to 1000 nM; in assay [2] (setting [4]), 300 to 3000 nM.
`O=C(N[C@H]1CCCC[C@H]2CC[C@@H](C(=O)NCc3n[nH]c4ncccc34)N2C1=O)c1cc2cc(C(F)(F)P(=O)(O)O)ccc2s1` [Compound 37, ((2-(((3S,6S,10aS)-3-(((1H-pyrazolo[3,4-b]pyridin-3-yl)methyl)carbamoyl)-5-oxodecahydro-pyrrolo[1,2-a]azocin-6-yl)carbamoyyl)benzo[b]thiophen-5-yl)difluoro-methyl) phosphonic acid]: the IC50 in assay [1] (setting [5]) was 100 to 1000 nM; in assay [2] (setting [6]) it was 300 to 3000 nM.
For `N#C[C@H]1CN(C(=O)[C@@H]2CCC[C@@H]3CCCC[C@H](NC(=O)c4cc5cc(C(F)P(=O)(O)O)ccc5s4)C(=O)N32)C[C@@H]1c1ccccc1` (relative stereo) [Compound 552, ((2-(((4S,7S,11aS)-4-((rel-trans)-3-cyano-4-phenylpyrrolidine-1-carbonyl)-6-oxodecahydro-2H-pyrido[1,2-a]azocin-7-yl)carbamoyl)benzo[b]thiophen-5-yl)fluoromethyl)phosphonic acid], the figures for the IC50 in assay [1] (setting [3]) and in assay [2] (setting [4]) were 1000 to 10000 nM and not above 300 nM, respectively.
For `O=C(N[C@H]1CC[C@H](O)C[C@H]2CC[C@@H](C(=O)N3CC(n4ccnc4)C3)N2C1=O)c1cc2cc(C(F)(F)P(=O)(O)O)ccc2s1` [Compound 15, ((2-(((3S,6S,9S,10aR)-3-(3-(1H-imidazol-1-yl)azetidine-1-carbonyl)-9-hydroxy-5-oxodecahydropyrrolo [1,2-a]azocin-6-yl)carbamoyl)benzo[b]thiophen-5-yl)difluoromethyl) phosphonic acid], the IC50 was less than 100 nM in assay [1] (setting [5]) and 300 to 3000 nM in assay [2] (setting [6]).
Take `COCC1(c2ncccn2)CN(C(=O)[C@@H]2CC[C@@H]3CCCC[C@H](NC(=O)c4cc5cc(C(F)(F)P(=O)(O)O)ccc5s4)C(=O)N32)C1` [Compound 654, (difluoro(2-(((3S,6S,10aS)-3-(3-(methoxymethyl)-3-(pyrimidin-2-yl)azetidine-1-carbonyl)-5-oxodecahydropyrrolo [1,2-a]azocin-6-yl)carbamoyl)benzo [b]thiophen-5-yl)methyl) phosphonic acid]: the IC50 in assay [1] (setting [3]) was 100 to 1000 nM; in assay [2] (setting [4]) it was 3000 to 30000 nM.
Turning to `O=C(N[C@H]1C[C@@H](O)CC[C@H]2CC[C@@H](C(=O)N3CC(C(=O)N4CCOCC4)C3)N2C1=O)c1cc2cc(C(F)(F)P(=O)(O)O)ccc2s1` [Compound 4, (difluoro(2-(((3S,6S,8S,10aR)-8-hydroxy-3-(3-(morpholine-4-carbonyl)azetidine-1-carbonyl)-5-oxodecahydropyrrolo [1,2-a]azocin-6-yl)carbamoyl)benzo[b]thiophen-5-yl)methyl) phosphonic acid], the IC50 was 100 to 1000 nM in assay [1] (setting [5]) and 3000 to 30000 nM in assay [2] (setting [6]).
`Cc1nccnc1C1CN(C(=O)[C@@H]2CC[C@@H]3CCC[C@H](NC(=O)c4cc5cc(CP(=O)(O)O)ccc5s4)C(=O)N32)C1` [Compound 649, ((2-(((3S,6S,9aS)-3-(3-(3-methylpyrazin-2-yl)azetidine-1-carbonyl)-5-oxooctahydro-1H-pyrrolo[1,2-a]azepin-6-yl)carbamoyl)benzo [b]thiophen-5-yl)methyl) phosphonic acid]: the IC50 in assay [1] (setting [3]) fell in the range of 1000 to 10000 nM; in assay [2] (setting [4]) it was 3000 to 30000 nM.
